Data: ChEMBL document CHEMBL1156520, “Inhibition of human dimethylarginine dimethylaminohydrolase-1 by S-nitroso-L-homocysteine and hydrogen peroxide. Analysis, quantification, and implications for hyperhomocysteinemia” (J Biol Chem, 2007)

How the values were obtained:
[1] = molecular target: N(G),N(G)-dimethylarginine dimethylaminohydrolase 1 (Homo sapiens, UniProt O94760); test: Inhibition of human recombinant DDAH1
[2] = Inhibition of recombinant N-glutathione transferase/human DDAH1 fusion protein

Chain of N(G),N(G)-dimethylarginine dimethylaminohydrolase 1 (O94760 whole entry, the tested form may be a part): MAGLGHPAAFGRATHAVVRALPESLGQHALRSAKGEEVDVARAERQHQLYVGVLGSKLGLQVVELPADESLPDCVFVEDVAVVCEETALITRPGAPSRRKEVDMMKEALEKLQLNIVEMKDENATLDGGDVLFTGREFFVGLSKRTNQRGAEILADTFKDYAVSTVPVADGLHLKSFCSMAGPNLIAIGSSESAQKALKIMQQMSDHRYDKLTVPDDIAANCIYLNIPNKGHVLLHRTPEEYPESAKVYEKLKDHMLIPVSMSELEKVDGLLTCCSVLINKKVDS

SMILES	IC50 [1] [µM]	Ki [2] [µM]
N[C@@H](CCS)C(=O)O [L-HOMOCYSTEINE]	640	–
NCCCC[C@H](N)C(=O)O [LYSINE]	–	2800
